Results on two compounds are retold here after patent publication US11834486B2, “Incretin analogs and uses thereof” (Eli Lilly and Company, priority 2017, dated 2023).

Each structure is given as a SMILES string. *1 amine or outer side, *2 acyl side, *3 side chain or, on linkers, in order; H or OH if unused. Where a SMILES comes first, the peptide text is derived from it. Side-chain parts run from the residue outwards. [ ]: non-standard residue; d: D form. The star is where a group is joined. C20 diacid = O=C(O)CCCCCCCCCCCCCCCCCCC(=O)*; αMePhe(2-F) = C[C@](N)(Cc1ccccc1F)C(=O)O; γGlu = O=C(O)[C@H](CCC(=O)[*:2])N[*:1]; AEEA = NCCOCCOCC(=O)O; Aib = CC(C)(N)C(=O)O

Broadly, the EC50 is the midpoint of the concentration-response curve.

The target in this assay is T1, human GIP-R (Homo sapiens, UniProt P48546).
T1 construct: expressed in transfected cells; host or cells: HEK-293 clonal cell line
T1 sequence (P48546 22-466): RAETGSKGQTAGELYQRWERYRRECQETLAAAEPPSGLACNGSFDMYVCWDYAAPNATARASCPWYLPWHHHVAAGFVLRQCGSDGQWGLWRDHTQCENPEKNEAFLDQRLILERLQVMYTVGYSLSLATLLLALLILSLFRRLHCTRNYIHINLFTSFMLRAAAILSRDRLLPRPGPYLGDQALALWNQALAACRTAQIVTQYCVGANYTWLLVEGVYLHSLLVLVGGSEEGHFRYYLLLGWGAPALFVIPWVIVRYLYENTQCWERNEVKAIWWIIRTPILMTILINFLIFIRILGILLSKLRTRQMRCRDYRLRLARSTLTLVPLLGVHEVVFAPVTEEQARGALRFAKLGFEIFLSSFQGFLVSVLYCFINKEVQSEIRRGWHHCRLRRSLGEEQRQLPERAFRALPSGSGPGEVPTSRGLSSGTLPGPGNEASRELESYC
Description: cAMP functional activity in GIP-R-expressing HEK-293 cells, FBS and BSA. The following applies: in the presence of FBS and BSA; read-out: cAMP EC50, nM (SEM, n) GIPR. The format is cell-based.

Regarding `CC[C@H](C)[C@H](NC(=O)[C@H](Cc1ccccc1)NC(=O)[C@H](C)NC(=O)C(C)(C)NC(=O)[C@H](CCC(N)=O)NC(=O)[C@H](C)NC(=O)[C@H](CCCCNC(=O)COCCOCCNC(=O)COCCOCCNC(=O)CC[C@H](NC(=O)CCCCCCCCCCCCCCCCCCC(=O)O)C(=O)O)NC(=O)[C@H](CCCCN)NC(=O)[C@H](CC(=O)O)NC(=O)[C@H](CC(C)C)NC(=O)[C@H](CC(C)C)NC(=O)[C@@H](NC(=O)[C@H](CO)NC(=O)[C@H](Cc1ccc(O)cc1)NC(=O)[C@H](CC(=O)O)NC(=O)[C@H](CO)NC(=O)[C@@H](NC(=O)[C@](C)(Cc1ccccc1F)NC(=O)[C@@H](NC(=O)CNC(=O)[C@H](Cc1c[nH]cn1)NC(=O)C(C)(C)NC(=O)[C@@H](N)Cc1ccc(O)cc1)[C@@H](C)O)[C@@H](C)O)[C@@H](C)CC)C(=O)N[C@@H](CCC(=O)O)C(=O)N[C@@H](Cc1ccc(O)cc1)C(=O)N[C@@H](CC(C)C)C(=O)N[C@@H](CC(C)C)C(=O)N[C@@H](CCC(=O)O)C(=O)NCC(=O)NCC(=O)N1CCC[C@H]1C(=O)N[C@@H](CO)C(=O)N[C@@H](CO)C(=O)NCC(=O)N[C@@H](C)C(=O)N1CCC[C@H]1C(=O)N1CCC[C@H]1C(=O)N1CCC[C@H]1C(=O)N[C@@H](CO)C(N)=O` [Example 3] (H-Y[Aib]HGT[αMePhe(2-F)]TSDYSILLDKK([AEEA-AEEA-γGlu-C20 diacid])AQ[Aib]AFIEYLLEGGPSSGAPPPS-NH2), the EC50 is 1.37 nM.

On to `CC[C@H](C)[C@H](NC(=O)[C@H](Cc1ccccc1)NC(=O)[C@H](C)NC(=O)C(C)(C)NC(=O)[C@H](CCC(N)=O)NC(=O)[C@H](C)NC(=O)[C@H](CCCCNC(=O)COCCOCCNC(=O)CC[C@H](NC(=O)CCCCCCCCCCCCCCCCCCC(=O)O)C(=O)O)NC(=O)[C@H](CCCCN)NC(=O)[C@H](CC(=O)O)NC(=O)[C@H](CC(C)C)NC(=O)[C@H](CC(C)C)NC(=O)[C@@H](NC(=O)[C@H](CO)NC(=O)[C@H](Cc1ccc(O)cc1)NC(=O)[C@H](CC(=O)O)NC(=O)[C@H](CO)NC(=O)[C@@H](NC(=O)[C@](C)(Cc1ccccc1F)NC(=O)[C@@H](NC(=O)CNC(=O)[C@H](CCC(N)=O)NC(=O)C(C)(C)NC(=O)[C@@H](N)Cc1ccc(O)cc1)[C@@H](C)O)[C@@H](C)O)[C@@H](C)CC)C(=O)N[C@@H](CCC(=O)O)C(=O)N[C@@H](Cc1ccc(O)cc1)C(=O)N[C@@H](CC(C)C)C(=O)N[C@@H](CC(C)C)C(=O)N[C@@H](CCC(=O)O)C(=O)NCC(=O)NCC(=O)N1CCC[C@H]1C(=O)N[C@@H](CO)C(=O)N[C@@H](CO)C(=O)NCC(=O)N[C@@H](C)C(=O)N1CCC[C@H]1C(=O)N1CCC[C@H]1C(=O)N1CCC[C@H]1C(=O)N[C@@H](CO)C(N)=O` [Example 4], for which the EC50 was 1.37 nM.
